# Experiment: in vitro
# Conditions: human, hela cells, % viability
row,Structure (SMILES),"viability at 28.5 h, 10 µM"
1,NS(=O)(=O)c1cc(C(=O)OCCNC(=O)c2ccccc2)c(Cl)cc1Cl [CBK265193],88.9%
2,Fc1ccccc1CN1CCN(Cc2ccccn2)CC1 [CBK265194G],100%
3,O=C1OC(c2ccco2)=N/C1=C/Nc1ccc(C(=O)O)cc1 [CBK265195],104%
4,CN1CCN(C(=O)c2cnn(-c3ccccc3)c2NC(=O)c2ccc(F)cc2)CC1 [CBK265198],88.3%
5,COc1ccc(Cl)cc1Nc1nc(N)nc(CC(=O)CSc2ccc(C)cc2)n1 [CBK265200],90.2%
6,CCOc1ccc2nc(SCc3nc(N)nc(Nc4cccc(Cl)c4C)n3)sc2c1 [CBK265202],83.1%
7,O=C(CSc1nnc(-c2cccnc2)n1-c1ccccc1)Nc1ccc(Br)cc1 [CBK265203],100%
8,CCOc1ccc2[nH]c(=O)c(/C=C3\SC(=S)N(CCC(=O)O)C3=O)cc2c1 [CBK265213],89.7%
9,Cc1ccc(OCC(=O)NC(=S)Nc2cc(-c3nc4ncccc4o3)ccc2Cl)cc1 [CBK265214],103%
10,O=C(CN(c1ccc(F)cc1)S(=O)(=O)c1ccccc1)Nc1ccc2c(c1)OCCO2 [CBK265215],94.8%
11,Cn1c2c(c(=O)n(C)c1=O)CN(CCN1CCNCC1)CN2 [CBK265218],104%
12,COc1ccc(C2N(Cc3ccccc3)CCN2Cc2ccccc2)c(OC)c1OC [CBK265220],104%
13,CCc1n[nH]c(SCc2ccc(Br)cc2)n1 [CBK265221],90.9%
14,S=c1n(CN2CCC3(CC2)OCCO3)nc(-c2ccccc2Cl)n1-c1ccccc1 [CBK265222],88.4%
15,Nc1cc(O)nc(SCCN2CCN(c3ccc(C(F)(F)F)cc3[N+](=O)[O-])CC2)n1 [CBK265225],88.5%
16,O=C(NCc1ccccn1)c1cncc(Br)c1 [CBK265226],88.1%
17,CC(C)(C)c1ccc(-c2nc(Nc3cccc(C(=O)O)c3)c3ccccc3n2)cc1 [CBK265229C],96.6%
18,CN1CCN(C(=S)SCc2nc(N)nc(Nc3ccc(F)cc3)n2)CC1 [CBK265230],81.4%
19,Cc1ccc(S(=O)(=O)NCc2c(-c3ccccc3)c3cc(Br)ccc3[nH]c2=O)cc1 [CBK265231],98.3%
20,COc1ccc(Nc2nc(N)nc(CSC(=S)N3CCN(C)CC3)n2)cc1 [CBK265232],90.8%
21,COc1cccc(CCNC2CC(=O)N(c3ccc(NC(C)=O)cc3)C2=O)c1 (stereo not shown) [CBK265233],109%
22,Cc1ccc(S(=O)(=O)NC2=NCN(CCOC(=O)c3ccc([N+](=O)[O-])cc3)CN2)cc1 [CBK265235],92.8%
23,CC(=O)Nc1ccc(N2C(=O)CC(NCCCN3CCOCC3)C2=O)cc1 (stereo not shown) [CBK265236],115%
24,CC(CN1CCCCC1)OC(=O)C(c1ccccc1)c1ccccc1 (stereo not shown) [CBK265237C],104%
25,Cc1ccc(CSCc2nc3ccccc3[nH]2)cc1 [CBK265238],90%
26,O=C(/C=C/c1ccc2c(c1)OCO2)NCCSCc1c(F)cccc1Cl [CBK265239],90.3%
27,Cc1ccc2nc3c(cc(C(=O)NC4CCCC4)c(=N)n3Cc3ccco3)c(=O)n2c1 [CBK265242],81%

row,Structure (SMILES),"viability at 28.5 h, 10 µM"
1,Cc1ccc(/C=N/n2c(S)nnc2COc2ccccc2)o1 [CBK265244],110%
2,Cc1ccc(N(CC(=O)Nc2ccccc2C(N)=O)S(=O)(=O)c2ccccc2)cc1C [CBK265246],94.4%
3,O=C(O)C(CCCCN1C(=O)c2ccccc2C1=O)N1C(=O)c2ccccc2C1=O (stereo not shown) [CBK265250],91.7%
4,CC1=NN(c2ccccc2)C(=O)/C1=C\c1cn(CCC(=O)O)nc1-c1cc2ccccc2o1 [CBK265252],88.1%
5,COc1ccccc1NC(=O)CN(c1ccc(Br)cc1)S(C)(=O)=O [CBK265254],99.3%
6,O=C(CC1(O)C(=O)N(Cc2ccccc2Cl)c2ccccc21)c1cc2ccccc2oc1=O (stereo not shown) [CBK265255],96.2%
7,COc1ccc(/C=C(/C(=O)NCc2ccc(Cl)cc2Cl)c2ccccc2)cc1 [CBK265256],89.9%
8,O=C(O)/C=C\c1cn(-c2ccccc2)nc1-c1cc2ccccc2o1 [CBK265257],92.7%
9,COc1ccc(N(CC(=O)N2CCN(Cc3ccc4c(c3)OCO4)CC2)S(C)(=O)=O)cc1Cl [CBK265258],84.3%
10,COC(=O)CN1C(=O)S/C(=C/c2ccc(OCc3cccc(C(=O)O)c3)c(Cl)c2)C1=O [CBK265262],90.2%
11,NC(=O)c1ccccc1NC(=O)CN(c1cccc(Br)c1)S(=O)(=O)c1ccccc1 [CBK265263],92.1%
12,OCCCNC(=S)Nc1ccc(Cl)cc1Cl [CBK265264],96.6%
13,O=C(O)C1CCN(S(=O)(=O)c2ccccc2[N+](=O)[O-])CC1 [CBK265267],98.6%
14,Sc1nnc(COc2ccccc2)n1/N=C/c1ccc(-c2ccccc2)cc1 [CBK265269],117%
15,O=c1c2c(n3c(S)nnc3n1Cc1ccco1)-c1ccccc1CC21CCCCC1 [CBK265271],94.7%
16,Sc1nnc(-c2ccncc2)n1/N=C/c1c[nH]c2ccccc12 [CBK265272],85.8%
17,O=C(/C=C\c1cn(-c2ccccc2)nc1-c1cccc([N+](=O)[O-])c1)n1nnc2ccccc21 [CBK265273],104%
18,Cc1ccc(NC(=O)c2cc(N3C(=O)c4ccc(C(=O)O)cc4C3=O)ccc2N2CCCCC2)cc1 [CBK265274],99.9%
19,O=C(CCC(=O)OCN1C(=O)c2ccccc2C1=O)Nc1ccc2ccccc2c1 [CBK265277],108%
20,Sc1nnc(COc2ccccc2)n1/N=C/c1ccccn1 [CBK265279],102%
21,CN1CCN(c2cc(N3CCN(C(=O)c4ccc(F)cc4F)CC3)c([N+](=O)[O-])cc2F)CC1 [CBK265280],95.1%
22,COc1cccc(/C=C2/NC(=O)N(Cc3ccc(F)cc3)C2=O)c1OCc1cccc(C(=O)O)c1 [CBK265282],89.1%
23,COc1ccc(-c2oc3ncn4nc(COc5ccccc5C)nc4c3c2-c2ccc(OC)cc2)cc1 [CBK265283],94.8%
24,Cc1cccc(OCc2nc3c4c5c(sc4ncn3n2)CCCCC5)c1C [CBK265284],104%
25,O=C(Oc1ccc2c(c1)C1C=CCC1C(C(=O)O)N2)c1ccc(Cl)cc1Cl (stereo not shown) [CBK265285],94.2%
26,Cc1nc2c(oc3nc(-c4ccoc4)c4c(c32)CC(C)(C)OC4)c(-c2ccccc2)c1C(=O)O [CBK265286],109%
27,CSc1nc(O)c(C(c2ccc(C(=O)O)cc2)c2c(O)nc(SC)nc2O)c(O)n1 [CBK265288],94.8%

row,Structure (SMILES),"viability at 28.5 h, 10 µM"
1,Cc1[nH]c2ccccc2c1/C=C1/C(=N)N2C(SCc3ccccc3)=NSC2=NC1=O [CBK265291],90%
2,O=C(Cc1ccccc1[N+](=O)[O-])Nc1ccc(S(=O)(=O)N2CCCC2)cc1 [CBK265292],87.1%
3,CCOC(=O)c1c(-c2cccs2)csc1NC(=O)CN1CCCCCC1 [CBK265294G],106%
4,Cc1cc(C)c(C)c(S(=O)(=O)N2CCN(c3ncnc4sc(C)c(C)c34)CC2)c1C [CBK265297],90.2%
5,c1ccc(-c2c(-c3ccccc3)n(Cc3ccco3)c3ncn4nc(-c5ccncc5)nc4c23)cc1 [CBK265298],89.6%
6,CC(C)C(=O)NC(c1ccc(C(C)C)cc1)c1cc([N+](=O)[O-])c2cccnc2c1O (stereo not shown) [CBK265303],103%
7,Cc1ccc(S(=O)(=O)Oc2ccc(C(c3c(C)n[nH]c3O)c3c(C)n[nH]c3O)cc2)cc1 [CBK265305],104%
8,COc1cc(/C=N/n2c(S)nnc2-c2cccnc2)ccc1OCc1ccccc1 [CBK265307],110%
9,Sc1nnc(COc2ccccc2)n1/N=C/c1cccnc1 [CBK265308],103%
10,Cc1ccc2nc(-c3ccc(N4C(=O)CC(N5CCC(N6CCCCC6)CC5)C4=O)cc3)sc2c1 (stereo not shown) [CBK265315],114%
11,CN(C)CCCNC(=S)NC(=O)c1ccccc1 [CBK265317],117%
12,COc1ccc(-c2nn(CCC(=O)O)cc2/C=C2\SC(=S)NC2=O)cc1OC [CBK265318],108%
13,CCOC(=O)c1c(NC(=O)CCN2CCCCC2)sc2c1CCCCC2 [CBK265319G],89.9%
14,COc1cc(/C=N/n2c(S)nnc2C(F)(F)F)cc(Br)c1O [CBK265321],74.2%
15,CCc1ccc(N(CC(=O)NCc2ccccn2)S(C)(=O)=O)cc1 [CBK265322],98.8%
16,Cc1ccc(NC(=O)c2cc(NC(=O)C3CC=CCC3C(=O)O)ccc2N2CCOCC2)cc1Cl (stereo not shown) [CBK265323],105%
17,CC(CN1CCCCC1)OC(=O)COc1ccc(Br)cc1 (stereo not shown) [CBK265326C],96.9%
18,CS(=O)(=O)N(Cc1ccc(Cl)cc1)c1ccc(C(=O)N2CCC(C(N)=O)CC2)cc1 [CBK265327],89.7%
19,O=S1(=O)C=C(SCCN2CCCCC2)c2ccccc21 [CBK265328],92.6%
20,CS(=O)(=O)N(CC(=O)N1CCN(Cc2ccc3c(c2)OCO3)CC1)c1cccc(C(F)(F)F)c1 [CBK265329],77.7%
21,O=C(NC(/C=C/c1ccccc1)c1cc([N+](=O)[O-])c2cccnc2c1O)C1CCCCC1 (stereo not shown) [CBK265333],93%
22,Cc1nc(Nc2c(Cl)cc(S(N)(=O)=O)cc2Cl)sc1C(=O)Nc1ccccc1 [CBK265335],106%
23,Sc1nnc(-c2ccncc2)n1/N=C/c1cccnc1 [CBK265336],96.6%
24,Cc1ccc(S(=O)(=O)N(CC(=O)NCC2CCCO2)c2cccc(C)c2C)cc1 (stereo not shown) [CBK265339],72.7%
25,O=C(NCCSCc1c(F)cccc1Cl)Nc1ccccc1 [CBK265340],90.2%
26,COc1ccc(CCNC(=O)CC2Sc3ccc(C(F)(F)F)cc3NC2=O)cc1OC (stereo not shown) [CBK265341],91.7%

# Same assay, conditions: human, hela cells, % viability, bulk resorufin, single well
row,Structure (SMILES),"viability at 28.5 h, 10 µM"
1,CCN1C(=O)/C(=C\c2ccc(-c3cccc(C(=O)O)c3C)o2)C(=O)N(c2ccc(Cl)cc2)C1=S [CBK265270],99.9%
2,O=C(O)CCn1cc(C=C2C(=O)NC(=S)NC2=O)c(-c2cc3ccccc3oc2=O)n1 [CBK265293],91.8%

# Source: article PMC12040169 (PLOS Biology, 2025)
